Values joined by “and” are separate entries in the source; they are usually repeats but may differ in a detail not shown here. Equal values may be shown once. Read-outs that look alike come from different tables or passages of the source.
Columns and labels:
Ba/F3 cells = assay: Growth inhibition assay in Ba/F3 cells (CellTiter-Glo, 72 h); type: cell-based; settings: replicate Sets 1-3
Ba/F3-CCDC6::RET^S904F = assay: as above; type: cell-based
Ba/F3-RET^M918T = assay: as above; type: cell-based; settings: Mus musculus, BaF3, 72 h, read-out: GI50 value (Mean ± SD), Ba/F3-RET^M918T, CellTiter-Glo, 72 h
[1] = system: Ba/F3 cells expressing KIF5B–RET^G810R; assay: as above; type: cell-based; settings: replicate Sets 1-3
[2] = system: Ba/F3 cells expressing KIF5B–RET^V804L; assay: as above; type: cell-based; settings: Ba/3-KIF5B-RET-V804L; replicate sets
[3] = system: phosphorylation of RET^G810R, RET^G810S and RET^G810C in Ba/F3 cells; assay: Western blotting of RET phosphorylation in Ba/F3 KIF5B–RET cells; type: cell-based; settings: 1 h, western blot
[4] = system: HBECp53-RET cells (CCDC6-RET fusion); assay: Growth inhibition (alamarBlue, 96 h); type: cell-based, human; settings: for raw viability signal (Source Data Fig. 3b-c): HBEC-RET, replicate sets
LC-2/ad cells = assay: Growth inhibition (alamarBlue, 96 h); type: cell-based, human; settings: for raw viability signal (Source Data Fig. 3b-c): LC-2/Ad, replicate sets
LUAD-0057BS1 cells = assay: Growth inhibition (alamarBlue, 96 h); type: cell-based, human; settings: for raw viability signal (Source Data Fig. 3b-c): LUAD-0057BS1, replicate sets
LUAD-0086AS3 cells = assay: Growth inhibition (alamarBlue, 96 h); type: cell-based, human; settings: for raw viability signal (Source Data Fig. 3b-c): LUAD-0086AS3 (n=1, 3 replicates)
LUAD-0002AS1 cells = assay: Growth inhibition (alamarBlue, 96 h); type: cell-based, human; settings: for raw viability signal (Source Data Fig. 3b-c): LUAD-0002AS1, replicate sets
LUAD-0087AS2 cells = assay: Growth inhibition (alamarBlue, 96 h); type: cell-based, human; settings: for raw viability signal (Source Data Fig. 3b-c): LUAD-0087AS2, replicate sets
[5] = Homo sapiens, 96 h, read-out: IC50 for Inhibition of Growth (95% CI)

**Q.** What does the source list for `CO[C@]1(C(=O)N[C@@H](C)c2ccc(-n3cc(F)cn3)nc2)CC[C@H](c2nc(C)cc(Nc3cc(C)[nH]n3)n2)CC1` [Pralsetinib]?
**A.** GI50 (Ba/F3 cells; Ba/F3 (parental)): 1420 nM; GI50 (Ba/F3 cells; Mus musculus, BaF3, Ba/F3 (parental)): 1070 nM; GI50 (Ba/F3-CCDC6::RET^S904F; BaF3/CCDC6-RET, read-out: GI50 values, Ba/F3-CCDC6::RET S904F, individual sets (replicate experiments)): 6.22 nM; GI50 (Ba/F3-CCDC6::RET^S904F; Mus musculus, BaF3, 72 h, read-out: GI50 value (Mean ± SD), Ba/F3-CCDC6::RET^S904F, CellTiter-Glo, 72 h): 6.02 ± 1.69 nM; GI50 (Ba/F3-CCDC6::RET^S904F; read-out: GI50 values, Ba/F3-CCDC6::RET S904F, individual sets (replicate experiments)): 7.61 nM and 4.24 nM; GI50 (Ba/F3-RET^M918T): 1.62 ± 0.77 nM; GI50 ([1]; Ba/3-KIF5B-RET-G810R): 1420 nM and 1200 nM; GI50 ([1]; Mus musculus, BaF3, Ba/3-KIF5B-RET-G810R): 816 nM; GI50 [2]: 10.6 nM and 6.67 nM and 4.32 nM; block of phosphorylation of RET^G810R, RET^G810S or RET^G810C [3]: did not block; raw viability signal (Source Data Fig. 3b-c) ([4]; 0.01 nM): 15373.7 and 12510.4 and 10530.7 and 16787.4; raw viability signal (Source Data Fig. 3b-c) ([4]; 0.1 nM): 15070.3 and 13088.9 and 11587.4 and 17702.2; raw viability signal (Source Data Fig. 3b-c) ([4]; 1 nM): 15214.6 and 13110.8 and 10795 and 16054.2; raw viability signal (Source Data Fig. 3b-c) ([4]; 10 nM): 6804.19 and 10276.4 and 9347.81 and 15758.2; raw viability signal (Source Data Fig. 3b-c) ([4]; 100 nM): 3516.93 and 4294.46 and 3038.53 and 6985.58; raw viability signal (Source Data Fig. 3b-c) ([4]; 1000 nM): 2132.67 and 2668.84 and 1165.86 and 3483.36; raw viability signal (Source Data Fig. 3b-c) ([4]; 10000 nM): 830.793 and 1030.6 and 876.114 and 1589.72; IC50 ([4]; Homo sapiens, 96 h, read-out: IC50 for Inhibition of Growth (95% CI), HBECp53-RET, alamarBlue, 96 h): 35 nM; IC50 (LC-2/ad cells; Homo sapiens, LC-2-ad, 96 h, read-out: IC50 for Inhibition of Growth (95% CI)): 18 nM; raw viability signal (Source Data Fig. 3b-c) (LC-2/ad cells; 0.01 nM): 14336.4 and 23167.3; raw viability signal (Source Data Fig. 3b-c) (LC-2/ad cells; 0.1 nM): 14242.4 and 23367.8; raw viability signal (Source Data Fig. 3b-c) (LC-2/ad cells; 1 nM): 13261.9 and 22232.1; raw viability signal (Source Data Fig. 3b-c) (LC-2/ad cells; 10 nM): 6314.77 and 17508.9; raw viability signal (Source Data Fig. 3b-c) (LC-2/ad cells; 100 nM): 3979.18 and 8357.34; raw viability signal (Source Data Fig. 3b-c) (LC-2/ad cells; 1000 nM): 2225.01 and 2896.43; raw viability signal (Source Data Fig. 3b-c) (LC-2/ad cells; 10000 nM): 918.728 and 947.198; IC50 (LUAD-0057BS1 cells; [5]): 36 nM; raw viability signal (Source Data Fig. 3b-c) (LUAD-0057BS1 cells; 0.01 nM): 16595.3 and 17181.3 and 21729.4; raw viability signal (Source Data Fig. 3b-c) (LUAD-0057BS1 cells; 0.1 nM): 16479.6 and 19958 and 20455.1; raw viability signal (Source Data Fig. 3b-c) (LUAD-0057BS1 cells; 1 nM): 16334.3 and 18804.2 and 20595.3; raw viability signal (Source Data Fig. 3b-c) (LUAD-0057BS1 cells; 10 nM): 13376 and 14580.9 and 14292.2; raw viability signal (Source Data Fig. 3b-c) (LUAD-0057BS1 cells; 100 nM): 5525.42 and 5782.49 and 4569.11; raw viability signal (Source Data Fig. 3b-c) (LUAD-0057BS1 cells; 1000 nM): 1800.25 and 2058.52 and 1619.82; raw viability signal (Source Data Fig. 3b-c) (LUAD-0057BS1 cells; 10000 nM): 968.48 and 1261.32 and 1236.21; IC50 (LUAD-0086AS3 cells; [5]): 121 nM; raw viability signal (Source Data Fig. 3b-c) (LUAD-0086AS3 cells; 0.01 nM): 31309.7 and 31098.7 and 34263.2; raw viability signal (Source Data Fig. 3b-c) (LUAD-0086AS3 cells; 0.1 nM): 29924.8 and 30921.2 and 29063.2; raw viability signal (Source Data Fig. 3b-c) (LUAD-0086AS3 cells; 1 nM): 27745.6 and 30045.6 and 27962.9; raw viability signal (Source Data Fig. 3b-c) (LUAD-0086AS3 cells; 10 nM): 27211.8 and 27719.7 and 26448.1; raw viability signal (Source Data Fig. 3b-c) (LUAD-0086AS3 cells; 100 nM): 16795 and 17102.3 and 12766; raw viability signal (Source Data Fig. 3b-c) (LUAD-0086AS3 cells; 1000 nM): 14016.5 and 12908.6 and 9876.85; raw viability signal (Source Data Fig. 3b-c) (LUAD-0086AS3 cells; 10000 nM): 5069.85 and 4707.96 and 4562.26; IC50 (LUAD-0002AS1 cells; [5]): 4 nM; raw viability signal (Source Data Fig. 3b-c) (LUAD-0002AS1 cells; 0.01 nM): 15231.7 and 11282.9 and 12487.7; raw viability signal (Source Data Fig. 3b-c) (LUAD-0002AS1 cells; 0.1 nM): 13433.7 and 11365.6 and 12797.1; raw viability signal (Source Data Fig. 3b-c) (LUAD-0002AS1 cells; 1 nM): 14274.6 and 7102.45 and 10515; raw viability signal (Source Data Fig. 3b-c) (LUAD-0002AS1 cells; 10 nM): 5412.04 and 2878.75 and 4059.15; raw viability signal (Source Data Fig. 3b-c) (LUAD-0002AS1 cells; 100 nM): 2211.78 and 2052.44 and 2966.29; raw viability signal (Source Data Fig. 3b-c) (LUAD-0002AS1 cells; 1000 nM): 1138.02 and 1548.13 and 2436.62; raw viability signal (Source Data Fig. 3b-c) (LUAD-0002AS1 cells; 10000 nM): 935.955 and 1429.45 and 2173.09; IC50 (LUAD-0087AS2 cells; [5]): 24 nM; raw viability signal (Source Data Fig. 3b-c) (LUAD-0087AS2 cells; 0.01 nM): 10767.7 and 15151.6 and 17255.6 and 15692.7; raw viability signal (Source Data Fig. 3b-c) (LUAD-0087AS2 cells; 0.1 nM): 11083.5 and 15670.9 and 15636 and 16225.5; raw viability signal (Source Data Fig. 3b-c) (LUAD-0087AS2 cells; 1 nM): 10977.2 and 15832.3 and 16084.8 and 16863; raw viability signal (Source Data Fig. 3b-c) (LUAD-0087AS2 cells; 10 nM): 7788.62 and 8365.43 and 13487.5 and 12530.5; raw viability signal (Source Data Fig. 3b-c) (LUAD-0087AS2 cells; 100 nM): 2806.08 and 5716.79 and 2099.37 and 2602.78; raw viability signal (Source Data Fig. 3b-c) (LUAD-0087AS2 cells; 1000 nM): 2132.43 and 5081.65 and 1620.29 and 1608.1

Source: article PMC10518257 (Nature Cancer, 2023)
